Assay results: patent US5654282A, “Selectin binding glycopeptides” (Glycomed Incorporated, priority 1995, dated 1997)

What was measured:
[1] = tested on: L-selectin; test: ELISA assay, selectin-IgG chimera binding to 2,3 sLex glycolipid (L-selectin); settings: FIG. 4; tested at several concentrations; results expressed as percent of control binding; values only in the figure
Method: (§1) An ELISA assay (Foxall et al, The Journal of Cell Biology (1992) 117:895) is preferably used which consists of the following three steps:
(§2) 1. 2,3 sLex glycolipid is transferred into microtitre wells as solutions and then evaporated off. Excess, which remained unattached, is washed off with water. The wells are then blocked with a blocking agent, preferably BSA.
(§3) 2. Preparation of "multivalent" receptor of the Selectin-IgG chimera is carried out by combining the respective chimera with biotin labelled goat F(ab')2 anti-human IgG (Fc specific) and streptavidin-alkaline phosphatase diluted appropriately and incubated. This allows the soluble multivalent receptor complex to form.
(§4) 3. Potential inhibitors such as glyco-amino acids or glycopeptides of structural formula I are allowed to react with the soluble receptor. This solution is then placed in the microtitre wells that are prepared in step 1. The plate is incubated to allow the soluble receptor to bind to its natural ligand. In the presence of a strong inhibitor only a few of the receptors should be free to bind to the microtitre plate coated with the natural ligand.
(§5) The positive control is the signal produced by the soluble receptor when it is allowed to react with the natural ligand in the microtitre wells in the absence of any inhibitor. This is considered 100% binding. The signal produced by the receptor that is previously treated with an inhibitor (recorded as O.D.), is divided by the signal produced by the positive control and multiplied by 100 to calculate the % receptor bound to the well in the presence of the inhibitor. The reciprocal of this is the % inhibition.
(§6) The glyco-amino acids or glycopeptides of structural formula I can be tested for their ability to bind to a selectin receptor and/or block the binding site of the receptor and thereby prevent a natural ligand from binding to the selectin receptor (Foxall et al, The Journal of Cell Biology (1992) 117:895). A generalized procedure for testing the ligands is given below.
(§7) An ELISA assay is preferably used which consisted of the following three steps:
1. 2,3 sLex glycolipid (25 picomol/well) was transferred into microtitre wells as solutions and evaporated off. Excess, which remained unattached, was washed off with water. The wells were blocked with 5% BSA at room temperature for an hour and washed with PBS containing 1 mM calcium.
2. Preparation of "multivalent" receptor of the Selectin-IgG chimera was carried out by combining the respective chimera (1 μg/mL) with biotin labelled goat F(ab')2 anti-human IgG (Fc specific) and streptavidin-alkaline phosphatase diluted 1:1000 in 1% BSA-PBS (1 mM calcium) and incubating at 37° C. for 15 min. This allowed the soluble multivalent receptor complex to form.
3. Potential inhibitors such as glyco-amino acids or glycopeptides of structural formula I were allowed to react with the soluble receptor at 37° C. for 45 min. This test assumes that optimal binding, between the soluble phase receptor complex and the inhibitor (non-natural ligand), would occur within this time frame. This solution was placed in the microtitre wells that were prepared in step 1. The plate was incubated at 37° C. for 45 minutes to allow the soluble receptor to bind to its natural ligand. In the presence of a strong inhibitor only a few receptors would be free to bind to the microtitre plate coated with the natural ligand.
as §5, with “control was” for “control is”, “it was” for “it is”, “This was” for “This is”, “that was” for “that is”, “O.D.), was” for “O.D.), is”

[2] = tested on: P-selectin; test: ELISA assay, selectin-IgG chimera binding to 2,3 sLex glycolipid (P-selectin); settings: FIG. 5; tested at several concentrations; results expressed as percent of control binding; values only in the figure
Method: as §1, §2, §3, §4, §5, §6, §7
1. 2,3 sLex glycolipid (25 picomol/well) was transferred into microtitre wells as solutions and evaporated off. Excess, which remained unattached, was washed off with water. […]
as §5, with “was” for “is”, “This is considered 100% binding.” left out, “The reciprocal of this is the % inhibition.” left out

[3] = tested on: P-selectin; test: P-Selectin/HL-60 assay; format: cell-based; settings: FIG. 6; HL-60 cells; tested at several concentrations; values only in the figure
From the text: The glyco-amino acids or glycopeptides of structural formula I can be tested for their ability to inhibit P-selectin binding to its native ligand. A generalized procedure for testing the ligands is given below. A P-selectin/HL-60 assay is preferably used which consists of the following steps:
1. HL-60 cells are harvested and pelleted by centrifugation. The cells are washed, counted and the volume adjusted appropriately.
2. PVC microtiter plate is blocked with a blocking agent, and washed with TBS-BSA.
3. P-selectin is diluted appropriately in BSA-TBS Ca containing goat F(ab')2 anti-human IgG (Fc spec) and streptavidin-alkaline phosphatase. Positive controls have DMF added to equal the highest concentration of DMF in the sample compounds.
4. Ligands are incubated at room temperature with brisk rotation. […]
Para-nitrophenylphosphonate is added to the plate. […] Aliqouts from each well is transferred to a polystyrene microtiter plate and O.D. read at 405 nm. […] The signal produced by the receptor that is previously treated with an inhibitor (recorded as O.D.), is divided by the signal produced by the positive control and multiplied by 100 to calculate the % receptor bound to the well in the presence of the inhibitor. […]
1. […] The cells were washed three times with TBS without Ca, counted and the volume adjusted to 1.9×10^6 /ml in 1% BSA-TBS Ca just prior to use. […]

[4] = tested on: L-selectin; test: Stamper-Woodruff assay (lymphocyte adhesion to HEV of lymph node frozen sections); format: cell-based, Swiss Webster mice; Sprague-Dawley rats; settings: FIG. 7; lymphocyte binding to HEV, percent of relative binding; values only in the figure
From the text: (§8) Lymphocytes are known to circulate from blood to lymphoid tissues via high endothelial venules (HEV) on lymph nodes. L-selectin is expressed on the surface of lymphocytes and is believed to mediate lymphocyte adhesion by binding to the natural ligand on the HEV. The glyco-amino acids or glycopeptides of structural formula I can be tested for their ability to bind to a selectin receptor and/or block the binding site of the receptor and thereby prevent a natural ligand from binding to the selectin receptor. See, for example, Stoolman et al, The Journal of Cell Biology (1983) 96:722. The Stamper-Woodruff assay is well known in the art, and generally consists of the following three steps:
1. Preparation of the lymphocytes:
(a) The lymphocytes are obtained from the mesenteric nodes of female Swiss Webster mice, by gently teasing tissues with phosphate buffered saline (PBS). The cells are obtained by gently squeezing the cells from the tissues. The cells are dispersed and the cell clumps are removed. The single cell suspension is suspended, washed, and kept on ice until use (less than two hours). Cells are counted and prepared at an appropriate concentration.
(b) The superficial and deep cervical lymph nodes of female Sprague-Dawley rats are dissected and prepared in the same way as the mice.
2. Preparation of frozen sections:
Superficial or deep cervical lymph nodes are dissected from the animals, snap frozen, and immediately placed in a cryostat for sectioning. 10-μm sections are prepared and transferred onto glass slides, and air dried.
3. Potential inhibitors are added to lymphocyte suspensions 10-30 minutes before the start of the binding assay, and unless otherwise stated, are present throughout the subsequent binding incubation.
The frozen sections are used in the order in which they are cut. Aliquots of untreated lymphocytes (positive control), suspensions containing fucoidin (negative control) and suspensions containing potential inhibitors are layered on the sections in an arbitrary sequence such that the control and each test substance are represented once in a series.
The binding of the lymphocytes to the HEV is easily distinguishable from binding elsewhere by virtue of the characteristic picture of tightly packed, darkly stained lymphocytes overlaying the histologically distinctive HEV. The number of adherent lymphocytes on each HEV are counted and the average number of adherent cells per HEV (cells bound per HEV) is calculated. The results are expressed as a percent of relative binding, wherein the positive control is considered to be 100% binding.
as §8, with “were” for “can be”
(a) The lymphocytes were obtained from the mesenteric nodes of female Swiss Webster mice (23-27 g), by gently teasing tissues by phosphate buffered saline (PBS). […] Cells were counted and prepared at 3-4×10^7 cells/ml. […]

**Q.** How did the “inhibition of the binding of sLe^x to L-selectin” value (from here on “inhibition … to L-selectin”) [1] turn out when `C[C@@H]1O[C@@H](CC(=O)N2CCC[C@H]2C(=O)N[C@@H](Cc2ccccc2)C(=O)O)[C@@H](O)[C@H](O)[C@@H]1O` [#1, N-[(1-deoxy-α-L-fucopyranosyl)acetyl]-L-proline-L-phenylalanine] was run?
**A.** The value was “inhibit the binding of sLe^x to L-selectin”.

**Q.** And the “inhibition of the binding of sLe^x to P-selectin” value [2]?
**A.** The value was “inhibit the binding of sLe^x to P-selectin”.

**Q.** What about the “inhibition of the binding of sLe^x to P-selectin in the HL-60 assay” value [3] of the same molecule?
**A.** The value was “inhibit the binding of sLe^x to P-selectin”.

**Q.** What about the “inhibitory effects in the Stamper-Woodruff assay (cell adhesion)” value [4] of the same molecule?
**A.** Its value is “inhibitory effects”.

**Q.** Which “inhibition … to L-selectin” value [1] does the source give for `CC1OC(CCCC(=O)NC(Cc2ccccc2)C(=O)O)C(O)C(O)C1O` [#6, N-[4-(1-deoxy-α-L-fucopyranosyl)n-butanoyl]-L-phenylalanine] here?
**A.** Its value is “inhibit the binding of sLe^x to L-selectin”.

**Q.** `C[C@@H]1O[C@@H](CC(=O)N[C@@H](CCCCNC(=O)OC(C)(C)C)C(=O)O)[C@@H](O)[C@H](O)[C@@H]1O` [#3, N-ω-t-butoxylcarbonyl-N-α-[(1-deoxy-α-L-fucopyranosyl)acetyl]-L-lysine] was tested. Which “inhibition … to L-selectin” value [1] did it give?
**A.** Its value is “inhibit the binding of sLe^x to L-selectin”.

**Q.** And the “inhibition of the binding of sLe^x to P-selectin” value [2]?
**A.** The value was “inhibit the binding of sLe^x to P-selectin”.

**Q.** What about the “inhibitory effects in the Stamper-Woodruff assay (cell adhesion)” value [4] of the same molecule?
**A.** Its value is “inhibitory effects”.

**Q.** Which results are given for `C[C@@H]1O[C@@H](CCCC(=O)N2CCC[C@H]2C(=O)N[C@@H](Cc2ccccc2)C(=O)O)[C@@H](O)[C@H](O)[C@@H]1O` [#4, N-[4-(1-deoxy-α-L-fucopyranosyl)n-butanoyl]-L-proline-L-phenylalanine]?
**A.** inhibition of the binding of sLe^x to L-selectin [1]: inhibit the binding of sLe^x to L-selectin; inhibition of the binding of sLe^x to P-selectin [2]: inhibit the binding of sLe^x to P-selectin; inhibitory effects in the Stamper-Woodruff assay (cell adhesion) [4]: inhibitory effects

**Q.** What does the source list for `C[C@H](NC(=O)C[C@@H]1O[C@@H](C)[C@@H](O)[C@@H](O)[C@@H]1O)C(=O)N1CCC[C@H]1C(=O)N[C@@H](Cc1ccccc1)C(=O)O` [#2, N-[(1-deoxy-α-L-fucopyranosyl)acetyl]-L-alanine-L-proline-L-phenylalanine]?
**A.** inhibition of the binding of sLe^x to L-selectin [1]: inhibit the binding of sLe^x to L-selectin; inhibition of the binding of sLe^x to P-selectin in the HL-60 assay [3]: inhibit the binding of sLe^x to P-selectin; inhibitory effects in the Stamper-Woodruff assay (cell adhesion) [4]: inhibitory effects

**Q.** Which results are given for `C[C@@H]1O[C@@H](CC(=O)N2CCC[C@H]2C(=O)N[C@H](C(=O)O)c2ccccc2)[C@@H](O)[C@H](O)[C@@H]1O` [#5, N-[(1-deoxy-α-L-fucopyranosyl)acetyl]-L-proline-L-phenylglycine]?
**A.** inhibition of the binding of sLe^x to L-selectin [1]: inhibit the binding of sLe^x to L-selectin; inhibition of the binding of sLe^x to P-selectin [2]: inhibit the binding of sLe^x to P-selectin; inhibitory effects in the Stamper-Woodruff assay (cell adhesion) [4]: inhibitory effects
